Test results taken from paper PMC7560154, “Novel Antimicrobial Peptide from Temporin L in The Treatment of Staphylococcus pseudintermedius and Malassezia pachydermatis in Polymicrobial Inter-Kingdom Infection” (Antibiotics, 2020).
≈ marks a conversion by molar mass, not a printed value. Where a SMILES comes first, the peptide text is derived from it. [ ]: non-standard residue; d: D form.

Assays:
MSSP mature biofilm = assay: Mature biofilm biomass, crystal violet assay, MSSP; format: cell-based, Staphylococcus pseudintermedius; conditions: MSSP one-day-old biofilm, up to 25 μM, 24 h
Procedure: (§1) Biofilms were allowed to form in each well of a 96-well microtiter plate, as described by Stepanovic. After 24 h, planktonic cells were aspirated, and the plates were washed with 200 μL of PBS. Cells biofilms were exposed to 200 μL of peptide 8 at the final concentration ranging from 6.25 to 25 μM and the plate was further incubated for 24 h at 37 °C. Positive controls were non-treated cells incubated with 200 μL of medium broth. At the end of the experiment crystal violet-staining was performed to assess biofilm mass.

[1] = tested on: methicillin-susceptible S. pseudintermedius (MSSP); assay: microbe, parasite or virus in culture; format: cell-based, Staphylococcus pseudintermedius
Procedure: (§2) MIC of all compounds was determined in Sabouraud Dextrose broth with 1% tween 80 (SB) medium, for M. pachydermatis, and Mueller–Hinton broth (MH), for S. pseudintermedius, by the broth microdilution assay (BMD) in 96-well microtiter plates, as previously reported. Specifically, SB containing 1% Tween 80 was used instead of RPMI 1640 medium. All compounds were dissolved in ethanol and ketoconazole in dimethyl sulfoxide (DMSO). The solutions were serially diluted in SB and MH two-fold from 0.19 to 50 μM. M. pachydermatis suspension was prepared from 3-day-old colonies grown on Sabouraud agar at 30 °C. The final concentration of the yeast inoculum suspensions was equivalent to 1–3 × 10^3 CFU/mL. Bacterial suspensions were diluted to yield an optical density (OD) around 0.5 at 595 nm and further diluted to a final concentration of 1 × 10^6 CFU/mL. The compounds were added to the microbial suspension in each well yielding a final cell concentration of 5 × 10^5 CFU/mL. Positive controls included oxacillin 5 μM (2 μg/mL) and vancomycin 1.4 μM (2 μg/mL) for S. pseudintermedius or ketoconazole 0.2 μM (0.125 μg/mL) for M. pachydermatis. Negative control wells were set to contain bacteria in MH or yeasts in SB plus the amount of ethanol used to dilute each compound. Medium turbidity was measured by a microtiter plate reader (Tecan, Milan, Italy) at 595 nm after 24 h for S. pseudintermedius and 48 h for M. pachydermatis. Absorbance was proportional to microbial growth. The MIC was defined as the lowest concentration of drug that caused a prominent decrease (≥90% inhibition) in visible growth relative to that of the growth control.

[2] = tested on: methicillin-resistant S. pseudintermedius (MRSP); assay: microbe, parasite or virus in culture; format: cell-based, Staphylococcus pseudintermedius
Procedure: as §2

[3] = in vivo model of acute inflammation; cited from earlier work
MRSP = assay: Time-kill assay, MRSP; format: cell-based, Staphylococcus pseudintermedius
Procedure: (§3) Time kill assay was carried out as previously described. […] Plates were incubated at 37 °C on an orbital shaker at 120 rpm. Viability assessments were performed at 0, 2, 4, 6 and 24 h by plating 0.01 mL undiluted and 10-fold serially diluted samples onto Mueller–Hinton plates in triplicate. After overnight incubation at 37 °C, bacterial colonies were counted and compared with counts from control cultures.

[4] = tested on: methicillin-susceptible S. pseudintermedius (MSSP); assay: Time-kill assay, MSSP; format: cell-based, Staphylococcus pseudintermedius
Procedure: as §3

MRSP mature biofilm [5] = assay: Confocal laser scanning microscopy of mature biofilm (LIVE/DEAD); format: cell-based, Staphylococcus pseudintermedius; conditions: MRSP 1-day-old biofilm, 24 h; 12.5 μM in method, 32 μg/mL in Figure 4 legend
Procedure: CLSM was used to confirm the effect of peptide 8 on mature biofilm respect the controls. MSRP were grown in chambered cover glass (μ Slide 4 well; ibidi GmbH, Germany) in a static condition for 24 h. Peptide 8 was added on a 1-day-old biofilm at 12.5 μM. Bacterial suspensions incubated with medium alone were used as a positive control. After 24 h, biofilms were rinsed with PBS and stained by using a LIVE/DEAD® BacLight Bacteria Viability stains (Life Technologies, Italy). After the staining, the images were observed using a LSM 700 inverted confocal laser-scanning microscope (Zeiss, Italy). The areas were scanned using a 10X objective lens with the signal recorded in the green channel for Syto9 (excitation 488 nm, emission 500–525 nm) and in red channel for PI (excitation 500–550 nm, emission 610–650 nm).

human keratinocytes = conditions: at MICs; cited from earlier work
Description: Azole drugs represent the first choice to treat Malassezia-related infections. It is well known that routine antifungal administration may induce acquired resistance. Peptide 8 was further investigated to verify if prolonged treatment might induce resistance in the yeast. […] Thus, a prolonged application of peptide 8 can be resolutive for yeast infection, without causing drug-resistance. By considering the good results obtained until here, we were prompted to inves ...

M. pachydermatis = assay: Resistance acquisition test (serial subculture with sublethal peptide 8); format: cell-based, Malassezia pachydermatis
Procedure: To evaluate if the yeast acquired resistance to the drug, after a continued treatment, M. pachydermatis was subcultured with a sub lethal concentration of peptide 8 (1/2 MIC). Briefly, a final 3.12 μM peptide 8 concentration was added to yeast inoculum suspension equivalent to 1–3 × 10^6 CFU/mL in Sabouraud dextrose broth (SB) and incubated 72 h at 30 °C (inoculum 1). After this period, optical density was measured and a new yeast subculture with 3.12 μM of peptide 8 was prepared starting from inoculum 1 (inoculum 2). Three days after, optical density was again recorded and a new inoculum in presence of peptide 8 prepared. This was repeated until evident yeast death was observed.

MRSP mature biofilm [6] = assay: Mature biofilm biomass, crystal violet assay, MRSP; format: cell-based, Staphylococcus pseudintermedius; conditions: MRSP one-day-old biofilm, up to 25 μM, 24 h
Procedure: as §1

## CC[C@H](C)[C@H](NC(=O)[C@H](CCCNC(=N)N)NC(=O)[C@@H](CCCCN)NC(=O)[C@@H](CC(C)C)NC(=O)[C@H](Cc1ccccc1)NC(=O)[C@H](CCCCN)NC(=O)[C@H](CO)NC(=O)[C@H](Cc1ccccc1)NC(=O)[C@H](Cc1c[nH]c2ccccc12)NC(=O)[C@@H]1CCCN1C(=O)[C@@H](NC(=O)[C@@H](N)Cc1ccccc1)C(C)C)C(=O)N[C@@H](CC(C)C)C(N)=O [Peptide 8] (H-FVPWFSKF[dL][dK]RIL-NH2; N-terminus assumed)
MSSP mature biofilm
  Effect on mature biofilm biomass: did not affect the biomass
[1]; 24 h
  MBC: 3.12 µM (≈ 5.24 µg/mL)
[1]; 24 h, read-out: MIC
  MIC: 1.56 µM (≈ 2.62 µg/mL)
[1]; MSSP
  MBC/MIC Ratio: 2
[2]; 24 h
  MBC: 12.5 µM (≈ 21 µg/mL)
[2]; 24 h, read-out: MIC
  MIC: 6.25 µM (≈ 10.5 µg/mL)
[2]; MRSP
  MBC/MIC Ratio: 2
[3]
  Anti-inflammatory activity: potent anti-inflammatory activity
MRSP; peptide at MIC value (6.25 μM), 37 °C, 0 h, three independent experiments in triplicate
  Log10CFU/mL 0 h: 5.30 ± 0.18 Log10CFU/mL
MRSP; peptide at MIC value (6.25 μM), 1 h
  Log10CFU/mL 1 h: 2.47 ± 0.18 Log10CFU/mL
MRSP; peptide at MIC value (6.25 μM), 2 h
  Log10CFU/mL 2 h: 2.38 ± 0.19 Log10CFU/mL
MRSP; peptide at MIC value (6.25 μM), 4 h
  Log10CFU/mL 4 h: 1.30 ± 0.21 Log10CFU/mL
MRSP; peptide at MIC value (6.25 μM), 6 h
  Log10CFU/mL 6 h: 0.77 ± 0.12 Log10CFU/mL
MRSP; peptide at MIC value (6.25 μM), 24 h
  Log10CFU/mL 24 h: 4.86 ± 0.28 Log10CFU/mL
MRSP; time-kill at MIC value
  Bactericidal or bacteriostatic activity: bacteriostatic
[4]; peptide at MIC value, 37 °C, 0 h, three independent experiments in triplicate
  Log10CFU/mL 0 h: 5.45 ± 0.25 Log10CFU/mL
[4]; peptide at MIC value, 1 h
  Log10CFU/mL 1 h: 0.60 ± 0.12 Log10CFU/mL
[4]; peptide at MIC value, 2 h
  Log10CFU/mL 2 h: 0.58 ± 0.32 Log10CFU/mL
[4]; peptide at MIC value, 4 h
  Log10CFU/mL 4 h: 0.89 ± 0.15 Log10CFU/mL
[4]; peptide at MIC value, 6 h
  Log10CFU/mL 6 h: 0.46 ± 0.15 Log10CFU/mL
[4]; peptide at MIC value, 24 h
  Log10CFU/mL 24 h: 4.97 ± 0.30 Log10CFU/mL
[4]; time-kill at MIC value
  Bactericidal or bacteriostatic activity: bacteriostatic
MRSP mature biofilm [5]
  Effect on cells within mature biofilm (LIVE/DEAD staining): killed or damaged
Human keratinocytes
  Cytotoxicity: low cytotoxicity
M. pachydermatis; 3.12 μM (1/2 MIC), 15 subcultures (about 2 months), three independent experiments in triplicate
  Log10 CFU/Ml After 15 Generation Subcultures Including TL48: 2.10 ± 0.12 Log10 CFU/Ml
M. pachydermatis; 3.12 μM (1/2 MIC), Sabouraud dextrose broth, 72 h at 30 °C per subculture, three independent experiments in triplicate
  Log10 CFU/Ml After 1 Generation Subculture Including TL48: 5.80 ± 0.25 Log10 CFU/Ml
M. pachydermatis; 2 months of repeated sublethal concentration treatment
  Acquisition of resistance after prolonged treatment: did not acquire resistance
MRSP mature biofilm [6]
  Effect on mature biofilm biomass: did not affect the biomass
